molecular target: T1, human glycolate oxidase (hGO) (Homo sapiens, UniProt Q9UJM8); assay: In vitro inhibition of human glycolate oxidase (enzymatic assay, HRP-coupled Trinder reaction); assay type: biochemical; details: not given;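 on % Inhibition: values are IC50 potency bins despite the % Inhibition label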
T1 construct: His-tag (6 histidines, pET-15b) (N); made in house; host or cells: E. coli BL21 (DE3)
T1 sequence (Q9UJM8 1-370): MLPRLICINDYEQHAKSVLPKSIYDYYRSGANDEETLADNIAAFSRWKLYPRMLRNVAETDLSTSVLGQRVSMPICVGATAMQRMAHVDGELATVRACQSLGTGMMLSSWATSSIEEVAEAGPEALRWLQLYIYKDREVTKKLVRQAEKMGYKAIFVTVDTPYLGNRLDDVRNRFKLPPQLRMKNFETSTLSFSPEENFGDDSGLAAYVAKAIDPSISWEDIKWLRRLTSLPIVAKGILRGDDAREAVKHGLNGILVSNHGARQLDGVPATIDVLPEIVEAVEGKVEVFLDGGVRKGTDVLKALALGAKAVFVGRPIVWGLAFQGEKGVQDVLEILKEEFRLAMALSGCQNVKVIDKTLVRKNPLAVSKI
Source text: The catalytic reactions used for assaying glycolate oxidase activity in the presence of compounds according to the present disclosure are outlined in FIG. 2. Glycolate oxidase (GO)-catalyzed conversion of glycolate to glyoxylate (top reaction), with the concomitant reduction of the cofactor flavin mononucleotide (FMN), uses molecular oxygen (O2) for recovering its oxidative state, releasing hydrogen peroxide (H2O2). The Trinder reaction (bottom reaction), in which horseradish peroxidase (HRP) uses hydrogen peroxide, 4-aminoantipyrine and a phenol derivative (sulphonated DCIP) to generate a quinoneimine dye that is spectrophotometrically measured.
Human glycolate oxidase (hGO) expression. BL21 (DE3) E. coli transformed with recombinant pET-15b expression vector with the N-terminal His-tag human Hao1 cDNA was grown in LB medium in the presence of 0.1 mg/ml ampicillin. For purification of recombinant human glycolate oxidase (hGO) expressed in BL21 E. coli, bacteria pellets were thawed and re-suspended in 2 ml lysis buffer (50 mM NaH2PO4, 300 mM NaCl, 10 mM imidazole, 50 μM FMN, pH 7.5), and then treated for 30 minutes with 1 mM PMSF for protease inhibition, 0.1% Triton X-100 and 0.2 mg/ml lysozyme to break cellular membranes. After sonication, cells were centrifuged and the supernatant containing the total cellular extract (pre-column fraction) was loaded into a Ni-NTA agarose column and incubated for 30 minutes at 4° C. to allow binding of the 6 histidine tail of recombinant GO protein to the nickel ions. The column was washed with two bed volumes of lysis buffer with 20 mM imidazole to eliminate unbound proteins (wash fraction). GO was eluted using the same buffer with 300 mM imidazole. Fraction containing purified GO was dialyzed against 300 ml of dialysis buffer (50 mM NaH2PO4, 300 mM NaCl, pH 7.5) at 4° C. in agitation overnight, and then kept at 4° C. in darkness. Protein were quantified by the bicinchoninic acid (BCA) assay.
Enzymatic assays. Enzymatic activity of hGO was determined in the presence of glycolate as substrate (40 mM glycolic acid) and phosphate buffer (50 mM KPO4, 0.1 mM EDTA, pH 7). The production of glyoxylate was indirectly measured by the quantification of hydrogen peroxide formed during the first oxidation reaction. […] Enzymatic activity was calculated at 1 minute after initiation of the Trinder reaction.

| IC50 [nM] | SMILES |
| --- | --- |
| < 100 | O=C(O)c1nn[nH]c1Oc1ccc(-c2ccc(Br)cc2)cc1 [Example 10, 5-((4′-bromo-[1,1′-biphenyl]-4-yl)oxy)-1H-1,2,3-triazole-4-carboxylic Acid] |
| 100 to 200 | N#Cc1cccc(-c2ccc(Oc3[nH]nnc3C(=O)O)cc2)c1 [Example 20, 5-((3′-cyano-[1,1′-biphenyl]-4-yl)oxy)-1H-1,2,3-triazole-4-carboxylic Acid] |
| < 100 | Cc1ccc(-c2ccc(Oc3[nH]nnc3C(=O)O)cc2)cc1 [Example 31, 5-((4′-methyl-[1,1′-biphenyl]-4-yl)oxy)-1H-1,2,3-triazole-4-carboxylic Acid] |
| < 100 | COc1ccc(Oc2[nH]nnc2C(=O)O)cc1 [Example 46, 5-(4-methoxyphenoxy)-1H-1,2,3-triazole-4-carboxylic Acid] |
| 100 to 200 | O=C(O)c1nn[nH]c1Oc1ccc(-c2ccccc2)cc1 [Example 42, 5-([1,1′-biphenyl]-4-yloxy)-1H-1,2,3-triazole-4-carboxylic Acid] |

same assay, conditions: recombinant hGO, 40 mM glycolic acid, pH 7, read at 515 nm, 1 minute after initiation of Trinder reaction; read-out: % Inhibition

| SMILES | IC50 [nM] |
| --- | --- |
| O=C(O)c1nn[nH]c1Oc1ccc(N2CCOCC2)cc1 [Example 1, 5-(4-morpholinophenoxy)-1H-1,2,3-triazole-4-carboxylic Acid] | > 200 |
| NC(=O)c1ccc(Oc2[nH]nnc2C(=O)O)cc1 [Example 56, 5-(4-carbamoylphenoxy)-1H-1,2,3-triazole-4-carboxylic Acid] | > 200 |
| O=C(O)c1nn[nH]c1Oc1cccnc1F [Example 57, 5-((2-fluoropyridin-3-yl)oxy)-1H-1,2,3-triazole-4-carboxylic Acid] | > 200 |
| O=C(O)c1nn[nH]c1Oc1ccc(Br)c(C(F)(F)F)c1 [Example 95, 5-(4-bromo-3-(trifluoromethyl)phenoxy)-1H-1,2,3-triazole-4-carboxylic Acid] | > 200 |
| CN1CCN(c2ccc(Oc3[nH]nnc3C(=O)O)cc2)CC1 [Example 65, 5-(4-(4-methylpiperazin-1-yl)phenoxy)-1H-1,2,3-triazole-4-carboxylic Acid] | > 200 |
| O=C(O)c1nn[nH]c1Oc1ccc(-c2ccc3nccn3c2)cc1 [Example 27, 5-(4-(imidazo[1,2-a]pyridin-6-yl)phenoxy)-1H-1,2,3-triazole-4-carboxylic Acid] | 100 to 200 |
| O=C(O)c1nn[nH]c1Oc1ccc(C2CCC(F)(F)C2)cc1 (stereo not shown) [Example 131, 5-(4-(3,3-Difluorocyclopentyl)phenoxy)-1H-1,2,3-triazole-4-carboxylic Acid] | 100 to 200 |
| O=C(O)c1nn[nH]c1Oc1ccc(-c2ccoc2)cc1 [Example 41, 5-(4-(furan-3-yl)phenoxy)-1H-1,2,3-triazole-4-carboxylic Acid] | 100 to 200 |
| O=C(O)c1nn[nH]c1Oc1ccc(-c2cccc(F)c2F)cc1 [Example 34, 5-((2′,3′-difluoro-[1,1′-biphenyl]-4-yl)oxy)-1H-1,2,3-triazole-4-carboxylic Acid] | 100 to 200 |
| CS(=O)(=O)c1ccc(-c2ccc(Oc3[nH]nnc3C(=O)O)c(F)c2)cc1 [Example 105, 5-((3-fluoro-4′-(methylsulfonyl)-[1,1′-biphenyl]-4-yl)oxy)-1H-1,2,3-triazole-4-carboxylic Acid] | 100 to 200 |
| N#Cc1ccc(-c2ccc(Oc3nn[nH]c3C(=O)O)cc2)cc1 [Example 29, 5-((4′-cyano-[1,1′-biphenyl]-4-yl)oxy)-1H-1,2,3-triazole-4-carboxylic Acid] | 100 to 200 |
| O=C(O)c1nn[nH]c1Oc1ccc(-c2ccc(C3CC(F)(F)C3)cc2)cc1 [Example 127, 5-((4′-(3,3-difluorocyclobutyl)-[1,1′-biphenyl]-4-yl)oxy)-1H-1,2,3-triazole-4-carboxylic Acid] | 100 to 200 |

Now from value to compound:

| IC50 [nM] | SMILES |
| --- | --- |
| < 100 | O=C(O)c1nn[nH]c1Oc1ccc(Cl)nc1 [Example 49, 5-((6-chloropyridin-3-yl)oxy)-1H-1,2,3-triazole-4-carboxylic Acid] |
| < 100 | O=C(O)c1nn[nH]c1Oc1cccc(-c2cccnc2F)c1 [Example 61, 5-(3-(2-fluoropyridin-3-yl)phenoxy)-1H-1,2,3-triazole-4-carboxylic Acid] |
| 100 to 200 | O=C(O)c1nn[nH]c1Oc1ccc(-c2ccc(C(F)(F)F)cc2)cc1F [Example 104, 5-((3-fluoro-4′-(trifluoromethyl)-[1,1′-biphenyl]-4-yl)oxy)-1H-1,2,3-triazole-4-carboxylic Acid] |
| 100 to 200 | O=C(O)c1nn[nH]c1Oc1ccc(-c2cc(F)c(F)c(F)c2)cc1 [Example 110, 5-((3′,4′,5′-trifluoro-[1,1′-biphenyl]-4-yl)oxy)-1H-1,2,3-triazole-4-carboxylic Acid] |
| 100 to 200 | O=C(O)c1nn[nH]c1Oc1ccc(-c2cn[nH]c2)cc1 [Example 11, 5-(4-(1H-pyrazol-4-yl)phenoxy)-1H-1,2,3-triazole-4-carboxylic Acid] |
| < 100 | Cc1cc(Oc2[nH]nnc2C(=O)O)ccc1-c1cccnc1F [Example 72, 5-(4-(2-fluoropyridin-3-yl)-3-methylphenoxy)-1H-1,2,3-triazole-4-carboxylic Acid] |
| 100 to 200 | CC(C)(C)c1ccc(-c2ccc(Oc3[nH]nnc3C(=O)O)cc2)cc1 [Example 35, 5-((4′-(tert-butyl)-[1,1′-biphenyl]-4-yl)oxy)-1H-1,2,3-triazole-4-carboxylic Acid] |
| < 100 | O=C(O)c1nn[nH]c1Oc1ccc(-c2cccnc2Cl)cc1 [Example 93, 5-(4-(2-chloropyridin-3-yl)phenoxy)-1H-1,2,3-triazole-4-carboxylic Acid] |
| 100 to 200 | O=C(O)c1nn[nH]c1Oc1ccc(-c2ccc(-c3cccnc3)cc2)cc1 [Example 120, 5-[4[4-(3-pyridyl)phenyl]phenoxy]-1H-1,2,3-triazole-4-carboxylic Acid] |
| < 100 | Cc1cncc(-c2ccc(Oc3[nH]nnc3C(=O)O)cc2)c1 [Example 80, 5-(4-(5-methylpyridin-3-yl)phenoxy)-1H-1,2,3-triazole-4-carboxylic Acid] |
| 100 to 200 | O=C(O)c1nn[nH]c1Sc1ccc(-c2ccc(C(F)(F)F)cc2)cc1 [Example 115, 5-((4′-(trifluoromethyl)-[1,1′-biphenyl]-4-yl)thio)-1H-1,2,3-triazole-4-carboxylic Acid] |
| < 100 | N#Cc1ccc(-c2ccc(Oc3[nH]nnc3C(=O)O)cn2)cc1 [Example 55, 5-((6-(4-cyanophenyl)pyridin-3-yl)oxy)-1H-1,2,3-triazole-4-carboxylic Acid] |
| < 100 | O=C(O)c1nn[nH]c1Oc1ccc(-c2cccnc2F)cc1F [Example 98, 5-(2-fluoro-4-(2-fluoropyridin-3-yl)phenoxy)-1H-1,2,3-triazole-4-carboxylic Acid] |
| < 100 | O=C(O)c1nn[nH]c1Oc1ccc(Br)cc1 [Example 6, 5-(4-bromophenoxy)-1H-1,2,3-triazole-4-carboxylic Acid] |
| < 100 | O=C(O)c1nn[nH]c1Oc1ccc(-c2cccc(OC(F)F)c2)cc1 [Example 40, 5-((3′-(difluoromethoxy)-[1,1′-biphenyl]-4-yl)oxy)-1H-1,2,3-triazole-4-carboxylic Acid] |
| < 100 | O=C(O)c1nn[nH]c1Oc1ccc(-c2cccnc2F)cc1 [Example 18, 5-(4-(2-fluoropyridin-3-yl)phenoxy)-1H-1,2,3-triazole-4-carboxylic Acid] |
| < 100 | O=C(O)c1nn[nH]c1Oc1ccc(-c2ccc(-c3cccc(OC(F)F)c3)cc2)cc1 [Example 16, 5-((3″-(difluoromethoxy)-[1,1′:4′,1″-terphenyl]-4-yl)oxy)-1H-1,2,3-triazole-4-carboxylic Acid] |
| < 100 | O=C(O)c1nn[nH]c1Oc1ccc(-c2ccncc2)cc1 [Example 19, 5-(4-(pyridin-4-yl)phenoxy)-1H-1,2,3-triazole-4-carboxylic Acid] |
| < 100 | O=C(O)c1nn[nH]c1Oc1ccc(-n2cccn2)cc1 [Example 4, 5-(4-(1H-pyrazol-1-yl)phenoxy)-1H-1,2,3-triazole-4-carboxylic Acid] |
| < 100 | COc1ccc(-c2ccc(Oc3[nH]nnc3C(=O)O)cc2)c(OC)n1 [Example 101, 5-(4-(2,6-dimethoxypyridin-3-yl)phenoxy)-1H-1,2,3-triazole-4-carboxylic Acid] |

From patent publication US11401246B2, “Triazole glycolate oxidase inhibitors” (CANTERO THERAPEUTICS, INC., priority 2018, dated 2022)
